In brackets after ≈: the same amount, converted by molar mass.
Columns and labels:
[1] = system: HCMV wild-type; test: HCMV yield assay; type: cell-based, human cytomegalovirus; conditions: human foreskin fibroblasts; for IC50: Human betaherpesvirus 5, Fibroblast, read-out: IC50 (ug/ml) HCMV
Method: Yield assay. Monolayer cultures of human foreskin fibroblasts are infected with HCMV wild-type, typically at a multiplicity of infection equal to 0.2, in the presence of inhibitor compound (varying concentrations). At three days post-infection, total virus produced in these cultures (i.e. virus yield) is assessed by harvesting and titering the virus in 12-well plates of cultured human foreskin fibroblasts (done in the absence of inhibitor). Plaques are quantified at 2 weeks post-infection. An inhibitor of HCMV is identified by the reduction in titer of virus yield in the presence, compared to the titer in the absence of compound. In this assay, the relative anti-HCMV activity of an inhibitor is typically determined by calculating the IC50 or IC90 value, that is, the amount of compound required to reduce the virus yield by 50% or 90%, respectively. Table I describes IC50 data for compounds tested against HCMV.

[2] = system: HSV-1; test: HSV Antiviral (ELISA) Assay; type: cell-based, herpes simplex virus type 1; conditions: Vero cells; for IC50: Human alphaherpesvirus 1, read-out: IC50 (ug/ml) HSV
Method: Vero cells (ATCC #CCL-81) are plated on 96-well tissue culture plates at 3.5×10^4 cells per 100 μl tissue culture DMEM (Dulbecco's modified Eagle media) supplemented with 2% fetal bovine serum (FBS) in each well. After overnight incubation @37° C. (in 5% CO2) and 30 minutes prior to infection with HSV-1 (multiplicity of infection equal to 0.006), cells are either untreated, or treated with test compound (multiple concentrations) or reference standard drug control. After approximately 24 hours post-infection incubation @37° C. (in 5% CO2), cells are fixed for ELISA assay. The primary antibody is murine anti-HSV glycoprotein D monoclonal primary antibody and the secondary antibody is goat anti-mouse IgG linked to β-galactosidase. Thus the extent of viral replication is determined by assessing β-galactosidase activity by quantifying the generation of the 4-methyl umbeliiferone fluorescent cleavage product after addition of the methyl umbelliferyl-β-D-galactoside (Sigma #M1633) substrate on a microfluorimeter (365 nm for excitation and 450 nm for emission). Antiviral activity (IC50) of the test compound is determined by comparing the flourescence obtained in absence of compound to that obtained in the presence of compound.

[3] = system: VZV strain Ellen; test: VZV Antiviral (ELISA) Assay; type: cell-based, varicella-zoster virus; conditions: human foreskin fibroblast cells; for inhibition at 10 µg/mL: Human alphaherpesvirus 3, read-out: % inhibition 10 ug/ml VZV; for inhibition at 10 µg/mL / % inhibition 10 ug/ml VZV: 10 ug/ml; for IC50: Human alphaherpesvirus 3, read-out: IC50 (ug/ml) VZV
Method: For the generation of stock VZV to be used in the assay, VZV strain Ellen (ATCC #VR-1367) is used to infect human foreskin fibroblast (HFF) cells at low multiplicity (less than 0.1) and incubated overnight at 37° C. in 5% CO2. After the overnight incubation, the mixture of uninfected and VZV-infected HFF infected cells are then harvested and added to each well of 96-well plates (3.5×10^4 cells in 100 μl DMEM supplemented with 2% FBS) which contain test compound or the reference standard drug control (in 100 μl DMEM supplemented with 2% FBS per well). These cells are incubated for three days at 37° C. in 5% CO2, then fixed for ELISA assay. The primary antibody is murine anti-VZV glycoprotein II monoclonal antibody (Applied Biosystems, Inc. #13-145-100) and the secondary antibody is goat anti-mouse IgG linked to β-galactosidase. Thus the extent of viral replication is determined by assessing β-galactosidase activity by quantifying the generation of the 4-methyl umbelliferone fluorescent cleavage product after addition of the methyl umbelliferyl-β-D-galactoside (Sigma #M1633) substrate on a microfluorimeter (365 nm for excitation and 450 nm for emission). Antiviral activity (IC50) of the test compound is determined by comparing the flourescence obtained in absence of compound to that obtained in the presence of compound.

Molecule	IC50 [1] [µg/mL]	IC50 [2] [µg/mL]	inhibition at 10 µg/mL [3] [%]	IC50 [3] [µg/mL]	IC50 (ug/ml) HCMV [1] [µg/mL]	IC50 (ug/ml) HSV [2] [µg/mL]	% inhibition 10 ug/ml VZV [3] [%]	IC50 (ug/ml) VZV [3] [µg/mL]
COc1cc(OC)c(NC(=S)Nc2ccc(NC(=O)c3ccco3)c(C)c2)cc1Cl [Example 311, Furan-2-carboxylic acid {4-[3-(5-chloro-2,4-dimethoxy-phenyl)-thioureido]-2-methyl-phenyl}-amide]	6 (≈ 13.5 µM)	12 (≈ 26.9 µM)	13	> 10				
COc1cc(OC)c(NC(=S)Nc2ccc(NC(=O)c3ccco3)c(C#N)c2)cc1Cl [Example 306, Furan-2-carboxylic acid {4-[3-(5-chloro-2,4-dimethoxy-phenyl)-thioureido]-2-cyano-phenyl}-amide]	2.5 (≈ 5.47 µM)	> 10	33	> 10				
COc1cc(OC)c(NC(=S)Nc2ccc(NC(=O)c3ccco3)cc2Cl)cc1Cl [Example 356, Furan-2-carboxylic acid {3-chloro-4-[3-(5-chloro-2,4-dimethoxy-phenyl)thioureido]-phenyl}-amide]	0.4 (≈ 0.858 µM)	0.5 (≈ 1.07 µM)	72	1.9 (≈ 4.07 µM)				
COc1cc(OC)c(NC(=S)Nc2cc(O)c(NC(=O)c3ccco3)cc2Cl)cc1Cl [Example 320, Furan-2-carboxylic acid {5-chloro-4-[3-(5-chloro-2,4-dimethoxy-phenyl)-thioureido]-2-hydroxy-phenyl}-amide]	8 (≈ 16.6 µM)	8 (≈ 16.6 µM)	50	> 10				
COc1cc(OC)c(NC(=S)Nc2cc(OC)c(NC(=O)c3ccco3)cc2C)cc1Cl [Example 287, Furan-2-carboxylic acid {4-[3-(5-chloro-2,4-dimethoxy-phenyl)-thioureido]-2-methoxy-5-methyl-phenyl}-amide]	> 50	8 (≈ 16.8 µM)	5	> 10				
COc1cc(OC)c(NC(=S)Nc2ccc(NC(=O)c3ccco3)c(OC)c2)cc1Cl [Example 304, Furan-2-carboxylic acid {4-[3-(5-chloro-2,4-dimethoxy-phenyl)-thioureido]-2-methoxy-phenyl}-amide]	7 (≈ 15.2 µM)	8 (≈ 17.3 µM)	44	11 (≈ 23.8 µM)				
5-[3-(5-Chloro-2,4-dimethoxy-phenyl)-thioureido]-2-[(furan-2-carbonyl)-amino]-benzoic acid [Example 339]					50	>50	11	>10
COc1cc(OC)c(NC(=S)Nc2ccc(NC(=O)c3ccco3)cc2C)cc1Cl [Example 296, Furan-2-carboxylic acid {4-[3-(5-chloro-2,4-dimethoxy-phenyl)-thioureido]-3-methyl-phenyl}-amide]	8 (≈ 17.9 µM)	1.2 (≈ 2.69 µM)	48	> 10				
COc1cc(OC)c(NC(=S)Nc2ccc(NC(=O)c3ccco3)cc2OC)cc1Cl [Example 390, Furan-2-carboxylic acid {4-[3-(5-chloro-2,4-dimethoxy-phenyl)-thioureido]-3-methoxy-phenyl}-amide]	> 10	0.5 (≈ 1.08 µM)	61	> 10				
COc1cc(OC)c(NC(=S)Nc2ccc(NC(=O)c3ccco3)cc2C(F)(F)F)cc1Cl [Example 858, Furan-2-carboxylic acid {4-[3-(5-chloro-2,4-dimethoxy-phenyl)-thioureido]-3-trifluoromethyl-phenyl}-amide]	2 (≈ 4 µM)	2.5 (≈ 5 µM)	26	> 10				
COc1cc(OC)c(NC(=S)Nc2ccc(NC(=O)c3ccco3)c(C(=O)Nc3ccccc3)c2)cc1Cl [Example 302, Furan-2-carboxylic acid {4-[3-(5-chloro-2,4-dimethoxy-phenyl)-thioureido]-2-phenylcarbamoyl-phenyl}-amide]	> 10	10 (≈ 18.1 µM)	5	> 10				
COc1cc(OC)c(NC(=S)Nc2cc(C)c(NC(=O)c3ccco3)cc2Cl)cc1Cl [Example 328, Furan-2-carboxylic acid {5-chloro-4[3-(5-chloro-2,4-dimethoxy-phenyl)-thioureido]-2-methyl-phenyl}-amide]	> 10	> 10	44	> 10				
COc1cc(OC)c(NC(=S)Nc2cc(OC)c(NC(=O)c3ccco3)cc2OC)cc1Cl [Example 276, Furan-2-carboxylic acid {4-[3-(5-chloro-2,4-dimethoxy-phenyl)-thioureido]-2,5-dimethoxy-phenyl}-amide]	> 10	> 10	75	4 (≈ 8.13 µM)				
COc1cc(OC)c(NC(=S)Nc2ccc(NC(=O)c3ccco3)c(Cl)c2)cc1Cl [Example 307, Furan-2-carboxylic acid {2-chloro-4-[3-(5-chloro-2,4-dimethoxy-phenyl)-thioureido]-phenyl}-amide]	5 (≈ 10.7 µM)	> 10	30	> 10				
COc1cc(OC)c(NC(=S)Nc2ccc(NC(=O)c3ccco3)c3ccccc23)cc1Cl [Example 324, Furan-2-carboxylic acid {4-[3-(5-chloro-2,4-dimethoxy-phenyl)-thioureido]-naphthalen-1-yl}-amide]	8 (≈ 16.6 µM)	4 (≈ 8.3 µM)	24	> 10				
Furan-2-carboxylic acid {4-[3-(5-chloro-2,4-dimethoxy-phenyl)-thioureido]-3-cyano-phenyl}-amide [Example 382]					>10	>10	46	>10
COc1cc(OC)c(NC(=S)Nc2ccc(NC(=O)c3ccco3)c(C(F)(F)F)c2)cc1Cl [Example 308, Furan-2-carboxylic acid {4-[3-(5-chloro-2,4-dimethoxy-phenyl)-thioureido]-2-trifluoromethyl-phenyl}-amide]	10 (≈ 20 µM)	10 (≈ 20 µM)	100	4 (≈ 8 µM)				
COc1cc(OC)c(NC(=S)Nc2ccc(NC(=O)c3ccco3)c(C(=O)c3ccccc3)c2)cc1Cl [Example 294, Furan-2-carboxylic acid {2-benzoyl-4-[3-(5-chloro-2,4-dimethoxy-phenyl)-thioureido]-phenyl}-amide]	> 10	> 50	0	> 10				

From patent publication US6410571B1, “Heterocyclic carboxamide-containing thiourea inhibitors of herpes viruses containing a substituted phenylenediamine group” (American Home Products Corporation, priority 1998, dated 2002)
